Measurements published in PMC9148072, “Design, Cytotoxicity and Antiproliferative Activity of 4-Amino-5-methyl-thieno[2,3-d]pyrimidine-6-carboxylates against MFC-7 and MDA-MB-231 Breast Cancer Cell Lines” (Molecules, 2022).
Converted amounts (≈) assume the structure as drawn. Like-named read-outs stand apart in the source and are kept apart here.

Assays:
MCF-7 = settings: results published earlier, read-out: IC50 (MCF-7) of lead compounds A and B; cited from earlier work
MCF-7 cell line = assay: MTT antiproliferative assay, MCF-7; format: cell-based, human; settings: for IC50: Homo sapiens, MCF7; for Selective Index MCF-7: SI = IC50 of MCF-10A/IC50 of MCF-7
Description: (§1) The compounds were studied for antiproliferative activity by standard MTT dye-reduction assay. Cell cultures from MCF-10A, MCF-7 and MDAMB-231 cell lines were incubated for 72 h in the presence of the tested substances in a wide range of concentrations. At the MCF-10A and MDA-MB-231 cell lines, compound 4 was applied in the range from 0.5 to 100 µg/mL, and all others from 4 to 1000 µg/mL.
The MCF-7 cell line was treated with compounds 2, 3 and 4 at concentrations from 0.5 to 100 µg/mL, and all others from 4 to 1000 µg/mL. The antiproliferative activity expressed in % relative to the negative control (untreated cells accepted as a 100% viable or 0% antiproliferative activity) was determined and shown on Figure 6.
(§2) All breast cell lines (MCF-10A, MCF-7 and MDA-MB-231) were purchased from the American Type Culture Collection—ATCC (Manassas, VA, USA). The MCF-7 and MDA-MB-231 were cultivated in Dulbecco’s Modified Eagle’s Medium (DMEM) supplemented with 10% fetal bovine serum (FBS), 1% sodium pyruvate, 1% MEM nonessential amino acids (NEAA) without antibiotics. The nontumorigenic breast cell line (MCF-10A) was cultivated in DMEM medium (Sigma-Aldrich, St. Louis, MO, USA) supplemented with 10% FBS, 1% sodium pyruvate, 1% nonessential amino acids (NEAA), 20 ng/mL human epithelia growth factor (hEGF), 10 μg/mL insulin, and 0.5 μg/mL hydrocortisone without antibiotics. All cell lines were maintained in a humidified atmosphere with 5% CO2 at 37 °C.
(§3) Using the standard MTT dye-reduction assay, described by Mosmann the antiproliferative activity was tested. The method is based on the metabolism of the tetrazolium salt MTT to insoluble formazan. The formazan absorption was registered using a microplate reader at λ = 540 nm. The measured absorption is an indicator of cell viability and metabolic activity. Antiproliferative activities were expressed as IC50 values (concentrations required for 50% inhibition of cell growth), calculated using nonlinear regression analysis (GraphPad Software, San Diego, CA, USA).

MDA-MB-231 = settings: results published earlier, read-out: IC50 (MDA-MB-231) of lead compounds A and B; cited from earlier work
MDA-MB-231 cell line = assay: MTT antiproliferative assay, MDA-MB-231; format: cell-based, human; settings: for Selective Index MDA-MB-231: SI = IC50 of MCF-10A/IC50 of MDA-MB-231; for IC50: MDA-MB-231, 72 h, MTT
Description: as §1, §2, §3

MCF-10A cell line = assay: MTT antiproliferative assay, MCF-10A; format: cell-based; settings: Homo sapiens, 72 h
Description: as §1
In order to determine antitumor activity, as a reliable model and a control we used the MCF-10A cell line (normal human mammary epithelial cells).
as §2, §3

[1] = 3T3 Neutral Red Uptake (NRU) cytotoxicity test; format: cell-based, mouse; settings: mouse, BALB/3T3 clone A31 cells; for CC50 at 24 h: BALB 3T3, 24 h, no irradiation, read-out: CC50 of Mean ± SD, Cytotoxicity; for IC50 at 24 h: BALB 3T3, converted from µg/mL, read-out: IC50 cytotoxicity against BALB 3T3
[2] = 3T3 NRU phototoxicity test (irradiated); format: cell-based, mouse; settings: mouse, BALB/3T3 clone A31 cells; BALB 3T3, irradiated 2.4 J/cm2, then 24 h; read-out: CC50 of Mean ± SD, Phototoxicity
Text: (§4) Some organic compounds exposed to sunlight can be converted into phototoxins as a result of light-induced changes in energy state or degradation of the molecule. The estimation of phototoxicity can serve as an indicator of the photostability of the studied thienopyrimidines when irradiated with UV light and as evidence that their effect on cells is only due to the cytotoxicity and not to phototoxicity. The compounds were studied for cytotoxicity by the 3T3 Neutral Red […] (NRU) phototoxicity test based on a comparison of the cytotoxicity of a chemical when tested in the presence and absence of noncytotoxic exposure to UVA/vis light. The cells were incubated with the test substances at a variable concentration: for compound 4 from 0.5 to 100 μg/mL, and for all the rest from 15 to 4000 μg/mL for 24 h.
(§5) The light source used was a light emitting diode (LED) matrix, an artificial solar light simulator Helios-iO, model LE-9ND55-H—5500K (SERIC Ltd., Tokyo, Japan).
(§6) BALB/3T3 cells were cultured in 75 cm^2 tissue-culture flasks in DMEM, 10% FBS, 2 mM glutamine and antibiotics (penicillin 100 U/mL and streptomycin 100 µg/mL) at 37 °C, 5% CO2 and 90% relative humidity. Cytotoxicity/phototoxicity was assessed by validated BALB/3T3 clone A31 Neutral Red Uptake Assay (3T3 NRU test). Briefly, cells were plated in a 96-well microtiter plate at a density of 1 × 10^4 cells/100 µL/well and were incubated for 24 h. A wide concentration range of the test compounds was applied. In phototoxicity tests, 96-well plates were irradiated with dose 2.4 J/cm^2 and the cells were incubated for additional 24 h. After treatment with Neutral Red medium, washing and treatment with the Ethanol/Acetic acid solution, the absorption was measured on a TECAN microplate reader (TECAN, Grödig, Austria) at wavelength 540 nm.
(§7) Cytotoxicity/phototoxicity were expressed as CC50/PC50 values (concentrations required for 50% cytotoxicity/phototoxicity), calculated using nonlinear regression analysis (GraphPad Software, Prism 8.0.2 (263), San Diego, CA, USA). The CC50 values can be used to calculate the PIF (photoirritancy factor) for each test substance, according to the following formula:PIF = Cytotoxicity (CC50)/Phototoxicity (PC50)(6)

BALB 3T3 cells [3] = assay: 3T3 NRU phototoxicity test (irradiated); format: cell-based, mouse; settings: CC50/PC50; PIF < 2 not phototoxic, ≥ 2 and < 5 probable phototoxicity, ≥ 5 phototoxic
Text: as §4, §5, §6, §7

BALB 3T3 cells [4] = assay: 3T3 Neutral Red Uptake (NRU) cytotoxicity test; format: cell-based, mouse; settings: BALB 3T3, 15 to 4000 µg/mL, 24 h
Aurora B kinase = target: Aurora B kinase; set-up: method as in PMID 21778056; settings: Figure 1; read-out: Aur B IC50; cited from earlier work
KDR = tested on: KDR; set-up: method as in doi:10.1016/j.medidd.2019.100009; settings: Figure 1; cited from earlier work
EGFR = tested on: EGFR; set-up: method as in PMID 31051400; settings: cited from earlier work
Tie-2 = tested on: Tie-2; set-up: method as in PMID 19854647; settings: Figure 1; read-out: Tie-2 cells IC50; cited from earlier work
VEGER = tested on: VEGER; set-up: method as in PMID 30343204; settings: Figure 1; cited from earlier work
FGFR1 = settings: Figure 1; cited from earlier work
ABC efflux pumps = tested on: ABC efflux pumps; set-up: method as in PMID 19783433; settings: Figure 1; read-out: EC50 in the daunorubicin accumulation assay; cited from earlier work
[5] = MCF-7, 72 h, MTT, read-out: IC50 Antiproliferative Activity MCF-7 in µM (converted)
[6] = MCF-7, 72 h, MTT, read-out: IC50 ± SD Antiproliferative Activity MCF-7
[7] = read-out: IC50 Antiproliferative Activity MCF-10A (converted)
[8] = read-out: IC50 ± SD Antiproliferative Activity MCF-10A
[9] = Homo sapiens, read-out: IC50 Antiproliferative Activity MDA-MB-231 in µM (converted)
[10] = Homo sapiens, read-out: IC50 ± SD Antiproliferative Activity MDA-MB-231

## CCOC(=O)c1sc2nc(CCn3c(=N)n(CCc4nc5sc(C(=O)OC)c(C)c5c(=O)[nH]4)c4ccccc43)[nH]c(=O)c2c1C [A]
MCF-7
  IC50: 0.074 µM
MCF-7 cell line; read-out: pCI50 in MCF-7 test (converted)
  IC50: 0.0741 µM
MDA-MB-231
  IC50: 0.16 µM

## CCOC(=O)c1sc2nc(CCn3c(=N)[nH]c4ccccc43)[nH]c(=O)c2c1C [B]
MCF-7
  IC50: 0.21 µM
MDA-MB-231
  IC50: 0.32 µM

## N.N.[Cl][Pt][Cl] [Cisplatin, reference compound]
MCF-7 cell line
  Selective Index MCF-7: 2.36
MDA-MB-231 cell line
  Selective Index MDA-MB-231: 25

## CCOC(=O)c1sc2nc(Cc3ccccc3)nc(N)c2c1C [Compound 2, Ethyl 4-Amino-2-benzyl-5-methyl-thieno[2,3-d]pyrimidine-6-carboxylate]
MCF-7 cell line; [5]
  IC50: 13 µM
MCF-7 cell line; [6]
  IC50: 4.3 ± 0.11 µg/mL
MCF-10A cell line; [7]
  IC50: 210 µM
MCF-10A cell line; [8]
  IC50: 67.8 ± 9.1 µg/mL
[1]
  CC50 at 24 h: 1210 ± 103 µg/mL (≈ 3700 µM)
[2]
  CC50 at 24 h: 632 ± 35.6 µg/mL (≈ 1930 µM)
BALB 3T3 cells [3]
  PIF (Photoirritancy factor): 1.9
other
  melting point: 159 to 161 °C
MDA-MB-231 cell line; [9]
  IC50: 56 µM
MDA-MB-231 cell line; [10]
  IC50: 18.3 ± 1.58 µg/mL
MDA-MB-231 cell line
  Selective Index MDA-MB-231: 3.7

## CCOC(=O)c1sc2nc(Cc3ccc([N+](=O)[O-])cc3)nc(N)c2c1C [Compound 3, Ethyl 4-Amino-5-methyl-2-(4-nitrobenzyl) Thieno [2,3-d] Pyrimidine-6-carboxylate]
MCF-7 cell line; [5]
  IC50: 23 µM
MCF-7 cell line; [6]
  IC50: 8.58 ± 0.55 µg/mL
MCF-10A cell line; [7]
  IC50: 440 µM
MCF-10A cell line; [8]
  IC50: 165 ± 8.81 µg/mL
[1]
  CC50 at 24 h: 1160 ± 57.8 µg/mL (≈ 3100 µM)
[2]
  CC50 at 24 h: 578 ± 58.7 µg/mL (≈ 1550 µM)
MDA-MB-231 cell line; [9]
  IC50: 250 µM
MDA-MB-231 cell line; [10]
  IC50: 98.2 ± 4.73 µg/mL
MDA-MB-231 cell line; read-out: IC50 Antiproliferative Activity MDA-MB-231 in µM (converted)
  IC50: 260 µM

## CCOC(=O)c1sc2nc(-c3cc(OC)c(OC)c(OC)c3)nc(N)c2c1C [Compound 4, Ethyl 4-Amino-5-methyl-2-(3,4,5-trimethoxyphenyl)thieno [2,3-d]Pyrimidine-6-carboxylate]
MCF-7 cell line; [5]
  IC50: 5 µM
MCF-7 cell line; [6]
  IC50: 2.01 ± 0.07 µg/mL
MCF-10A cell line; [7]
  IC50: 6.8 µM
MCF-10A cell line; [8]
  IC50: 2.74 ± 0.13 µg/mL
[1]
  CC50 at 24 h: 8.37 ± 0.6 µg/mL (≈ 20.7 µM)
[2]
  CC50 at 24 h: 11.8 ± 0.8 µg/mL (≈ 29.4 µM)
BALB 3T3 cells [3]
  PIF (Photoirritancy factor): 0.7
MDA-MB-231 cell line; [9]
  IC50: 16 µM
MDA-MB-231 cell line; [10]
  IC50: 6.43 ± 0.95 µg/mL

## CCOC(=O)c1sc2nc(-c3ccncc3)nc(N)c2c1C.Cl [Compound 6, Ethyl 4-Amino-5-methyl-2-(pyridin-4-yl)thieno[2,3-d]pyrimidine-6-carboxylate hydrochloride]
MCF-7 cell line; [5]
  IC50: 1410 µM
MCF-7 cell line; [6]
  IC50: 444 ± 9.2 µg/mL
MCF-7 cell line
  Selective Index MCF-7: 0.92
MCF-10A cell line; [7]
  IC50: 1310 µM
MCF-10A cell line; [8]
  IC50: 411 ± 5.1 µg/mL
[1]
  CC50 at 24 h: > 4000 µg/mL
  IC50 at 24 h: > 13000 µM
BALB 3T3 cells [4]
  cytotoxicity versus BALB 3T3 cells (in words): not cytotoxic
other
  melting point: 259 to 261 °C
MDA-MB-231 cell line; [9]
  IC50: 370 µM
MDA-MB-231 cell line; [10]
  IC50: 116 ± 9.63 µg/mL
MDA-MB-231 cell line
  Selective Index MDA-MB-231: 3.54

## CCOC(=O)c1sc2nc(-c3ccccn3)nc(N)c2c1C [Compound 7, Ethyl 4-Amino-5-methyl-2-(pyridin—2-yl) Thieno[2,3-d]pyrimidine-6-carboxylate]
MCF-7 cell line; [6]
  IC50: > 1000 µg/mL
MCF-10A cell line; [8]
  IC50: > 1000 µg/mL
[1]
  CC50 at 24 h: 2750 ± 64.3 µg/mL (≈ 8760 µM)
  IC50 at 24 h: 8800 µM
[2]
  CC50 at 24 h: 2550 ± 75.1 µg/mL (≈ 8120 µM)
BALB 3T3 cells [3]
  PIF (Photoirritancy factor): 1.08
other
  melting point: 262 to 264 °C
MDA-MB-231 cell line; [10]
  IC50: > 1000 µg/mL

## CCOC(=O)c1sc2nc(-c3cccnc3)nc(N)c2c1C [Compound 8, Ethyl 4-Amino-5-methyl-2-(pyridin-3-yl)thieno [2,3-d]Pyrimidine-6-carboxylate]
other
  melting point: 241 to 242 °C

## Cc1ccccc1NC(=O)NCc1cccc(NC(=O)c2csc3ncnc(N)c23)c1 [III]
Aurora B kinase
  IC50: 0.0038 µM

## Cc1sc2ncnc(N)c2c1C(=O)Nc1ccc(NC(=O)Nc2ccccc2)cc1 [II]
Aurora B kinase
  IC50: 0.0002 µM

## Cc1cccc(NC(=O)Nc2ccc(-c3csc4ncnc(N)c34)cc2)c1 [IV]
KDR
  IC50: 0.003 µM

## C=CC(=O)N1CCc2c(sc3ncnc(NC(CO)c4ccccc4)c23)C1 (stereo not shown) [IX]
EGFR; Figure 1
  IC50: 0.008 µM

## Cn1cnc(-c2cccc(NC(=O)Nc3cc(C(F)(F)F)ccc3F)c2)c1-c1cc2c(N)ncnc2s1 [I]
Tie-2
  IC50: 0.07 µM

## CC(=O)c1cccc(NC(=O)Nc2ccc(Nc3ncnc4sc5c(c34)CCCC5)cc2)c1 [VIII]
VEGER
  IC50: 1.5 µM

## Oc1cccc(Nc2ncnc3sc(-c4ccccc4)cc23)c1 [VII]
FGFR1
  IC50: 0.16 µM

## Oc1cccc(Nc2ncnc3scc(-c4ccccc4)c23)c1 [VI]
FGFR1
  IC50: 0.18 µM

## Nc1nc(SCCc2ccccc2)nc2sc3c(c12)CCCC3 [V]
ABC efflux pumps
  EC50: 1.02 µM

## Fc1ccccc1Nc1ncnc2sc3c(c12)CCCC3 [X]
EGFR
  EGFR/HER2 inhibitory activity IC50 (in words): in the nanomolar range
